Ends that are not written are not given here.
Columns and labels:
Candida albicans = assay type: cell-based
[1] = test system: multi-resistant strain E. coli 19536; assay: Radial diffusion bactericidal assay, multi-antibiotic resistant E. coli 19536; assay type: cell-based
Description: These studies were conducted substantially following the procedures used in Example 2.
In order to test the bactericidal activity of BPI peptides against multi-antibiotic resistant E. coli, a multi-resistant strain E. coli 19536 (ampR 16 μg/mL; ceftazidimeR>16 μg/mL; ceftriazoneR>16 μg/mL) was tested. This strain is a clinical isolate obtained from the Baxter Microscan® library (Sacramento, Calif.). An overnight culture of E. coli 19536 was tested as described in Example 2 and part A above. Test BPI peptides were 2-fold serially diluted in D-PBS starting at about 1 mg/mL.

[2] = Heparin binding by tryptophan fluorescence quenching
Description: The naturally-occurring amino acid tryptophan can emit light (i.e., it fluoresces) having a wavelength between 300 and 400 nm after excitation with light having a wavelength of between about 280 nm and 290 nm, preferably 285 nm. The amount of emitted light produced by such fluorescence is known to be affected by the local environment, including pH and buffer conditions, as well as binding interactions between proteins and other molecules. Some BPI functional domain peptides derived from domains II and III contain tryptophan residues, and tryptophan fluorescence was used to assay binding interactions between the BPI functional domain peptides of the invention and LPS or heparin.
Tryptophan fluorescence of the BPI functional domain peptides of the invention was determined in the presence or absence of LPS or heparin using a SPEX Fluorolog fluorimeter. Samples were excited with 285 nm light using a 0.25 nm slitwidth. Emission wavelengths were scanned between 300-400 nm using a 1.25 nm slitwidth. Data were accumulated as the average of three determinations performed over an approximately 5 min time span. Samples were maintained at 25° C. or 37° C. during the course of the experiments using a circulating water bath. Crab endotoxin binding protein (CEBP), a protein wherein the intrinsic fluorescence of tryptophan residues is affected by binding to LPS, was used as a positive control. (See Wainwright et al., 1990, Cellular and Molecular Aspects of Endotoxin Reactions, Nowotny et al., eds., Elsevier Science Publishing B.V., The Netherlands, pp. 315-325).
Kd values were determined by Scatchard-type Stern-Volmer plots of the quenching data as the negative inverse of the slope of such plots. Comparing the data for BPI.10, BPI.46 and BPI.47, it is seen that as the Kd decreased (indicating an increase in avidity for LPS), the percent fluorescence quenching increased. The differences between these peptides include replacement of basic and polar amino acid residues with non-polar residues in […] as compared with BPI.10. In contrast, as the Kd of heparin binding decreased, a corresponding increase in the percentage of fluorescence quenching was not detected.

E. coli O4:K12 = assay: Broth bactericidal assay, E. coli O4:K12; assay type: cell-based; settings: FIG. 11k
E. coli O86a:K61 = assay: Broth bactericidal assay, E. coli O86a:K61; assay type: cell-based; settings: FIG. 11j

## KSKVGWLIQLFHKK-NH2 (C-terminus assumed) [BPI.13]
Candida albicans
  MIC C. alb: 6.25 µg/mL

## KWKAAARFLKKWKAAARFLK [BPI.48]
[1]
  bactericidal activity (in words): activity against multi-antibiotic resistant E. coli
[2]
  Quenching Heparin: 41%
[2]; Stern-Volmer plots
  Kd: 800 nM

## KWKAQKRFLKKSKVGWLIQLFHKK-NH2 (C-terminus assumed) [BPI.30]
E. coli O4:K12
  bactericidal activity (in words): showed bactericidal activity
E. coli O86a:K61
  bactericidal activity (in words): showed bactericidal activity

Source: patent publication US20040023884A1, “Biologically active peptides from functional domains of bactericidal/permeability-increasing protein and uses thereof” (priority 1993, published 2004)
